Assay results: article PMC5063506, “A Novel Class of Small Molecule Agonists with Preference for Human over Mouse TLR4 Activation” (PLoS ONE, 2016)
≈ marks a conversion by molar mass, not a printed value. Like-named read-outs stand apart in the source and are kept apart here.

Experiments:
[1] = LogD, octanol/water distribution coefficient; format: physicochemical; conditions: pH 7.4; octanol/water distribution coefficient at pH7.4
From the text: (§1) Fig 2 Optimization stages of Ugi products as TLR4 agonists. *Human TLR-4 NFκB SEAP reporter assays; protocol as described in Methods. Data are reported as pEC50, or negative log of the EC50 values. **Clint rh / hm represents intrinsic clearance in presence of rat hepatocytes (μL/min/10^6 cells) and human microsomes (μL/min/mg protein). […] Thus a drug molecule with LogD >4 might be considered to be very lipophilic and therefore more likely to suffer from rapid metabolic turnover, poor solubility and receptor promiscuity; whereas a LogD range of 1–3 is more likely to be associated with optimal physicochemical and drug-like properties. ^††Solubility was measured by dissolution of solid samples in buffer at pH 7.4.

human TLR4 = target: T1, human TLR4 (Homo sapiens, UniProt O00206+Q9Y6Y9); test: Human TLR4 NFκB SEAP reporter gene assay in hTLR4-transfected HEK293 cells; format: cell-based; conditions: for EC50: NFκB SEAP reporter, hTLR4-transfected HEK293 cells, 20 h, read-out: Human TLR4 pEC50 (converted)
T1 construct: expressed in transfected cells; host or cells: HEK293 with stably integrated pNiFty2-SEAP reporter
Protocol: (§2) HEK293 cells stably transfected with pNiFty2-SEAP reporter plasmid were transiently transfected with either human or mouse TLR4 (pUNO expression vector), in combination with either human or mouse CD14/MD2 (pDUO expression vector). Transient transfectants were seeded in Dulbecco’s Modified Eagle Medium, FCS 10% (v/v), 2 mM l glutamine and non-essential amino acids. Cells were seeded in tissue culture treated clear flat bottom polystyrene 96 well plates (Costar, 3598) at 1e4 cells/well. Concentration-response curves were generated by addition of test compounds and incubation for 20 h at 37°C in an atmosphere of 5% CO2. LPS (E. coli 0111:B4, Ultra-pure, Invivogen) or PHAD (Avanti Polar Lipids) was used as a positive control. The SEAP released was quantified using p nitrophenyl phosphate as a substrate, and the absorbance at 405 nm was measured at 30 second intervals over several minutes using a microplate reader. Some data are recorded as the pEC50, the negative log of the EC50 value. Other data generated from these reporter cell lines were converted to AUC (area under the curve) values by interpolation of fitted cubic spline curve between OD value and log concentration levels. The calculation is performed using MESS package in statistical software R (www.r-project.org/).

mouse TLR4/MD2 = target: T2, mouse TLR4/MD2 (Mus musculus, UniProt Q9JHF9+Q9QUK6); test: mTLR4/MD2-HEK293 transfectant SEAP (QUANTI-Blue) dose response, AUC; format: cell-based; conditions: 1 μg/ml to 4 ng/ml, 24 h, SEAP OD 650 nm vs log concentration
T2 construct: host or cells: HEK293
T2 sequence (Q9QUK6 26-835): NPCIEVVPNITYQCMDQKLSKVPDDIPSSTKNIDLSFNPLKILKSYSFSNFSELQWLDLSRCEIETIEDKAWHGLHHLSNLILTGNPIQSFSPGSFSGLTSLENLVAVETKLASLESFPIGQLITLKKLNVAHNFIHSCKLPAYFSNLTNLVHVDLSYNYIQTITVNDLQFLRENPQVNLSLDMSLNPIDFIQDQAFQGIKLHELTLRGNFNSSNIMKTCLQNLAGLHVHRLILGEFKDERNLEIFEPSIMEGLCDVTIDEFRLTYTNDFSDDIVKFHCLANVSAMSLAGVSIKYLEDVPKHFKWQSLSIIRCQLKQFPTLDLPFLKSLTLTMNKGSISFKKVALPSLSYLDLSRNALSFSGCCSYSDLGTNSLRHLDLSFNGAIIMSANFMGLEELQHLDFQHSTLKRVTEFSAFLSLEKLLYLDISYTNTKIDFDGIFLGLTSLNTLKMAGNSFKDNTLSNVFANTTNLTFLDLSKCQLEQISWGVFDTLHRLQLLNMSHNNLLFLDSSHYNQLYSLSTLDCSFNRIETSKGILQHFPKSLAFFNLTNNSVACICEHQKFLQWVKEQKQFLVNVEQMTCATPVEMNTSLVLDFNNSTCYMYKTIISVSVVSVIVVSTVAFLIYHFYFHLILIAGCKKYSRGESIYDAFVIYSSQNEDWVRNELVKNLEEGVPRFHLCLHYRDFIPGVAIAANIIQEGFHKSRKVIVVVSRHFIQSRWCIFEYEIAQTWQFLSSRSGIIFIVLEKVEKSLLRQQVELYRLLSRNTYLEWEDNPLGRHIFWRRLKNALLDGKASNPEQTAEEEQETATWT
T2 sequence (Q9JHF9 19-160): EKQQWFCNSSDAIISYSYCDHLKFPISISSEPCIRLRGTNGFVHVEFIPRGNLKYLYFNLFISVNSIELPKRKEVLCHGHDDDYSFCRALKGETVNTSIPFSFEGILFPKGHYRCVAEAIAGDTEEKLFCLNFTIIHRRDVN
Protocol: as §2, with “Cells” for “HEK293 cells stably transfected with pNiFty2-SEAP reporter plasmid were transiently transfected with either human or mouse TLR4 (pUNO expression vector), in combination with either human or mouse CD14/MD2 (pDUO expression vector). Transient transfectants were seeded in Dulbecco’s Modified Eagle Medium, FCS 10% (v/v), 2 mM l glutamine and non-essential amino acids. Cells”
(§3) Fig 4 Ugi compounds preferentially activate TLR4-HEK transfectants expressing human MD2. A-B) HEK293 cells transfected with human TLR4/MD2 or mouse TLR4/MD2 (InVivogen) were stimulated with TLR4 agonists including MPL, PHAD, and Ugi compounds at 1 μg/ml to 4 ng/ml and with LPS at 25 ng/ml to 64 pg/ml for 24 h. SNs were analyzed for SEAP content by the QUANTI-Blue assay (InVivogen) and analysis at 650 nm by spectrophotometer. AUC (area under the curve) values were calculated as in Methods. No AUC value was calculated for LPS since it was utilized with a different dose range. C) HEK transfectants with cis- or trans-species expression of TLR4, MD2, and CD14 were stimulated with Ugi compounds in a dose response range of 9 μM to 1 nM or with LPS (boxes) at 75 ng/ml to 5 pg/ml for 48 h. Data was obtained as Vmax calculated over the initial linear portion of the kinetic absorbance measurements. The AUC (area under the curve) value for the dose response curve of Vmax vs log10 (molar units) was calculated for each compound using Trapezoidal rule. TEXT PRINTED IN THE PICTURE: (A) MPL: hTLR4-HEK AUC: 0.55 | (A) AZ617: hTLR4-HEK AUC: 5.90 | (A) AZ618: hTLR4-HEK AUC: 6.56 | (A) AZ839: hTLR4-HEK AUC: 6.00 | (A) AZ161: hTLR4-HEK AUC: 5.54 | (A) AZ902: hTLR4-HEK AUC: 7.04 | (A) GLA: hTLR4-HEK AUC: 3.75 | (B) MPL: mTLR4-HEK AUC: 13.27 | (B) AZ617: mTLR4-HEK AUC: 0.89 | (B) AZ618: mTLR4-HEK AUC: 1.03 | (B) AZ839: mTLR4-HEK AUC: 0.93 | (B) AZ161: mTLR4-HEK AUC: 0.99 | (B) AZ902: mTLR4-HEK AUC: 1.55 | (B) GLA: mTLR4-HEK AUC: 14.24

human TLR4/MD2 = target: T3, human TLR4/MD2 (Homo sapiens, UniProt O00206+Q9Y6Y9); test: hTLR4/MD2-HEK293 transfectant SEAP (QUANTI-Blue) dose response, AUC; format: cell-based; conditions: 1 μg/ml to 4 ng/ml, 24 h, SEAP OD 650 nm vs log concentration
T3 construct: host or cells: HEK293
Protocol: as §2, with “Cells” for “HEK293 cells stably transfected with pNiFty2-SEAP reporter plasmid were transiently transfected with either human or mouse TLR4 (pUNO expression vector), in combination with either human or mouse CD14/MD2 (pDUO expression vector). Transient transfectants were seeded in Dulbecco’s Modified Eagle Medium, FCS 10% (v/v), 2 mM l glutamine and non-essential amino acids. Cells”
as §3

TLR4/MD2 KO BMDCs = test: Cytokine induction in BMDCs of mTLR4/MD2 knockout mice; format: cell-based, mouse; conditions: 24 h, 1 μg/ml TLR4 agonists, 2 μM R848
From the text: (§4) Femur/tibia bones from w.t. C57BL/6, TLR4/MD2 KO, and hTLR4/MD2 KIKO mice were soaked in 10% FBS-RPMI. Muscle and fat tissue was stripped off from the bones with a scalpel, then, bone pairs from individual mice were transferred to 100 mm petri dishes. Femur and tibia bones were separated and the ends cut with dissecting scissors so that bone marrow cells (BMCs) could be removed by flushing the interior of the bones using a 21 G needle and warm 10% FBS-RPMI. BMCs were passed through a 70 μm strainer, followed by RBC lysis. BMCs were cultured in a 70 mm flask for 24 h in the presence of 10 ng/ml (200 unit/ml) of mGM-CSF. Non-adherent cells were collected, washed, and seeded in a 175 cm flask in the presence of 20 ng/ml of mGM-CSF. Every two days, the cells were fed with fresh media and 20 ng/ml mGM-CSF. On day 9, cells were harvested, washed, and stained for CD11c/CD11b expression to determine BMDC density. BMDCs were cultured at 50,000 cells/well for 24 h with 1 μg/ml MPL, LPS, Ugi compounds, or 2 μM R848 (InVivogen).
(§5) Fig 10 Ugi compounds activate mouse BMDCs that express human TLR4/MD2. Bone marrow cells were isolated from femur/tibia bones of w.t. […] BMDCs were harvested at day 9, washed, counted, and stimulated in vitro for 24 h with 1 μg/ml TLR4 agonists and 2 μM R848. SNs were analyzed via mouse MILLIPLEX kits. Data are expressed as the means of 2 mice and are representative of 2 studies.

C57BL/6 w.t. BMDCs = test: Cytokine induction in BMDCs of w.t. C57BL/6 mice; format: cell-based, mouse; conditions: 24 h, 1 μg/ml TLR4 agonists, 2 μM R848
From the text: as §4, §5

[2] = Intrinsic clearance in presence of rat hepatocytes; format: in vitro ADME; conditions: read-out: Clint rh (intrinsic clearance, rat hepatocytes)
From the text: as §1

cytochrome P450 enzymes = test: Inhibition of cytochrome P450 enzymes (unpublished data); format: in vitro ADME; conditions: compared with earlier-stage, more lipophilic Ugi compounds
[3] = Solubility by dissolution of solid samples in buffer; format: physicochemical; conditions: aqueous buffer, thermodynamic from solid; solid samples in buffer at pH 7.4
From the text: as §1

[4] = Intrinsic clearance in presence of human microsomes; format: in vitro ADME; conditions: read-out: Clint hm (intrinsic clearance, human microsomes)
From the text: as §1

T1 sequence (O00206 24-839): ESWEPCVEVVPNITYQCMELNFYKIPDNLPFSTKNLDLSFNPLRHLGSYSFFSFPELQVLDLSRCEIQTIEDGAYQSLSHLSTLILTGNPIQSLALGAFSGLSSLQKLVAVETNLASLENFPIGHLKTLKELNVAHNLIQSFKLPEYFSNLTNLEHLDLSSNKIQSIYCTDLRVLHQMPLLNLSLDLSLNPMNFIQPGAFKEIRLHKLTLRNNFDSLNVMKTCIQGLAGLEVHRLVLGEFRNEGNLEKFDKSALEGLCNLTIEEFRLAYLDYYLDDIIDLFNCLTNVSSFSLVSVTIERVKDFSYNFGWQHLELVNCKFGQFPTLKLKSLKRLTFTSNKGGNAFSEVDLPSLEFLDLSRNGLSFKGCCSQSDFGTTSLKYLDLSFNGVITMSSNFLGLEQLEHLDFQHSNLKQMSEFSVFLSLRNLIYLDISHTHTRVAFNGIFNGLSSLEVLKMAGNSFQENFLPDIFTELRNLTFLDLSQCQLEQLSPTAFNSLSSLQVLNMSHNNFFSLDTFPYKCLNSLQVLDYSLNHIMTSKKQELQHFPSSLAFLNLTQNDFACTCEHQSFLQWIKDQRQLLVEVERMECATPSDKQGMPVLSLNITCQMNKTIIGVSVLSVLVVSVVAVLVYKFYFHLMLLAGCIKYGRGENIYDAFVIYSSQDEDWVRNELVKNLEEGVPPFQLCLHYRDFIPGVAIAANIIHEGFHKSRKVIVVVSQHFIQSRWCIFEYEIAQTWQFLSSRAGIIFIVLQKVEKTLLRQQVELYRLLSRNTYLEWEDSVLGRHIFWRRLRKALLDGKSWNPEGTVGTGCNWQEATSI
T1 sequence (Q9Y6Y9 19-160): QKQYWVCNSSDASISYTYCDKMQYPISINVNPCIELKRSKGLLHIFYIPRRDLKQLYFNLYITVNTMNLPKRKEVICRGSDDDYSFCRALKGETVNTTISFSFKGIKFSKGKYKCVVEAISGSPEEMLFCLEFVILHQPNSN
T3 sequence (O00206 24-839): as the sequence (O00206 24-839) above
T3 sequence (Q9Y6Y9 19-160): as the sequence (Q9Y6Y9 19-160) above

Row | SMILES | logD [1] | EC50 (human TLR4) | also measured
1 | Cc1cccc(CN(C(=O)c2cc(-c3ccccc3)n(-c3ccccc3)n2)C(C(=O)NC2CCCC2)c2ccc(CC(=O)O)cc2)c1C (stereo not shown) [AZ839] | 3.62 | 25.1 nM | mTLR4-HEK AUC (mouse TLR4/MD2): 0.93; hTLR4-HEK AUC (human TLR4/MD2): 6.00
2 | CCOCc1nc2c(N)nc3ccccc3c2n1CC(C)(C)O [R848] |  |  | cytokine response of mTLR4/MD2 knockout BMDCs (TLR4/MD2 KO BMDCs): retained; cytokine response of C57BL/6 w.t. BMDCs (C57BL/6 w.t. BMDCs): strong response
3 | C#Cc1ccc(C(C(=O)NC2CCCC2)N(C(=O)c2ccc(-c3ccccc3)[nH]2)c2ccc(OC)cc2)cc1 (stereo not shown) [AZ462] | > 4.5 | 1000 nM | 
4 | CC(C)c1ccc(N(C(=O)c2cc(-c3ccccc3)n(-c3ccccc3)n2)C(C(=O)NC2CCCC2)c2ccc(/C=C/C(=O)O)cc2)cc1 (stereo not shown) [AZ368, (E)-3-(4-(2-(cyclopentylamino)-1-(N-(4-isopropylphenyl)-1,5-diphenyl-1H-pyrazole-3-carboxamido)-2-oxoethyl)phenyl)acrylic acid] |  | 1.58 nM | 
5 | CC(C)c1ccc(N(C(=O)c2cc(-c3ccccc3)n(-c3ccccc3)n2)C(C(=O)NC2CCCC2)c2ccc(CC(=O)NO)cc2)cc1 (stereo not shown) [AZ226] | > 4.5 | 158 nM | 
6 | O=C(O)Cc1ccc(C(C(=O)NC2CCCC2)N(C(=O)c2cc(-c3ccccc3)n(-c3ccccc3)n2)c2ccc(Cc3ccccc3)cc2)cc1 (stereo not shown) [AZ897] | 4.3 | 12.3 nM | 
7 | COc1ccc(N(C(=O)c2cc(-c3ccccc3)n(-c3ccccc3)n2)C(C(=O)NC2CCCC2)c2ccncc2)cc1 (stereo not shown) [AZ842] | > 4.5 | 398 nM | 
8 | C#Cc1ccc(C(C(=O)N[C@@H](C(=O)O)C(C)C)N(C(=O)c2cc(-c3ccccc3)n(-c3ccccc3)n2)c2ccc(OC)cc2)cc1 (stereo partly shown) [AZ792] |  | 2000 nM | 
9 | C#Cc1ccc(C(C(=O)NC2CCCC2)N(C(=O)c2cc(-c3ccccc3)n(-c3ccccc3)n2)c2ccc(OC)cc2)cc1 (stereo not shown) [AZ606] | > 4.5 |  | hepatocyte CLint [2]: 36 µL/min/1e6 cells; inhibition of one or more cytochrome P450 enzymes (cytochrome P450 enzymes): greatly reduced; solubility [3]: 2.2 µM (≈ 1.31 µg/mL); increase in potency in the hTLR4-HEK assay (human TLR4; relative to AZ126): 10 fold; microsomal CLint [4]: 39 µL/min/mg
10 | CCCCCCCCCCCCCC(=O)O[C@H](CCCCCCCCCCC)CC(=O)O[C@@H]1[C@@H](NC(=O)C[C@H](CCCCCCCCCCC)OC(=O)CCCCCCCCCCCCC)[C@H](OC[C@H]2O[C@H](O)[C@H](NC(=O)C[C@H](O)CCCCCCCCCCC)[C@@H](OC(=O)C[C@H](O)CCCCCCCCCCC)[C@@H]2O)O[C@H](CO)[C@H]1OP(=O)(O)O [GLA, glucopyranosyl lipid A, reference compound] |  |  | mTLR4-HEK AUC (mouse TLR4/MD2): 14.24; hTLR4-HEK AUC (human TLR4/MD2): 3.75
11 | COc1ccc(N(C(=O)c2cc(-c3ccccc3)n(-c3ccccc3)n2)C(C(=O)NC2CCCC2)c2ccc(CC(=O)O)cc2)cc1 (stereo not shown) [AZ635] | 2.74 | 100 nM | 
12 | COc1ccc(N(C(=O)c2[nH]c(-c3ccccc3)cc2C)C(C(=O)NC2CCCC2)c2ccncc2)cc1 (stereo not shown) [AZ126, N-(2-(cyclopentylamino)-2-oxo-1-(pyridin-4-yl)ethyl)-N-(4-methoxyphenyl)-3-methyl-5-phenyl-1H-pyrrole-2-carboxamide] | > 4.5 | 2510 nM | hepatocyte CLint ([2]; rat): 28 µL/min/1e6 cells; solubility [3]: 0.1 µM (≈ 0.0509 µg/mL); microsomal CLint ([4]; human): 56 µL/min/mg
